Assay in all cases: microscale thermophoresis, RED-NHS labelled protein
What all share (type): binding

Assay [1] deals with T1, Sso2081 (Crn1) (Saccharolobus solfataricus, UniProt Q7LYJ6, D75A).
T1 construct: full length aa 1-178; recombinant in E. coli Rosetta (DE3); N-terminal His6 tag cut with PreScission protease; homodimer
T1 sequence (Q7LYJ6 1-178 D75A): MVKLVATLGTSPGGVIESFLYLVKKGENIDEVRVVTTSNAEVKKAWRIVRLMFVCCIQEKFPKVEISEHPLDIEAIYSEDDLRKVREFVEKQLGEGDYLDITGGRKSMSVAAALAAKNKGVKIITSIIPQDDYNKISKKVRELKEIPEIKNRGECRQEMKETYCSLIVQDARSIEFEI

The target in assay [2] is T2, Sso2081 (Crn1) (Saccharolobus solfataricus, UniProt Q7LYJ6, S11A).
T2 construct: full length aa 1-178; recombinant in E. coli Rosetta (DE3); N-terminal His6 tag cut with PreScission protease; homodimer
T2 sequence (Q7LYJ6 1-178 S11A): T1 sequence (Q7LYJ6 1-178 D75A) with S11A, A75D

Assay [3] has as its target T3, Sso2081 (Crn1) (Saccharolobus solfataricus, UniProt Q7LYJ6, K106A).
T3 construct: full length aa 1-178; recombinant in E. coli Rosetta (DE3); N-terminal His6 tag cut with PreScission protease; homodimer
T3 sequence (Q7LYJ6 1-178 K106A): T1 sequence (Q7LYJ6 1-178 D75A) with A75D, K106A

Assay [4] has as its target T4, Sso2081 (Crn1) (Saccharolobus solfataricus, UniProt Q7LYJ6, T10A).
T4 construct: full length aa 1-178; recombinant in E. coli Rosetta (DE3); N-terminal His6 tag cut with PreScission protease; homodimer
T4 sequence (Q7LYJ6 1-178 T10A): T1 sequence (Q7LYJ6 1-178 D75A) with T10A, A75D

Assay [5] addresses T5, Sso2081 (Crn1) (Saccharolobus solfataricus, UniProt Q7LYJ6, E17A).
T5 construct: full length aa 1-178; recombinant in E. coli Rosetta (DE3); N-terminal His6 tag cut with PreScission protease; homodimer
T5 sequence (Q7LYJ6 1-178 E17A): T1 sequence (Q7LYJ6 1-178 D75A) with E17A, A75D

Residue numbers refer to the chain shown, from its start.

For the molecule `Nc1ncnc2c1ncn2[C@@H]1O[C@@H]2COP(=O)(O)O[C@H]3[C@@H](O)[C@H](n4cnc5c(N)ncnc54)O[C@@H]3COP(=O)(O)O[C@H]3[C@@H](O)[C@H](n4cnc5c(N)ncnc54)O[C@@H]3COP(=O)(O)O[C@H]3[C@@H](O)[C@H](n4cnc5c(N)ncnc54)O[C@@H]3COP(=O)(O)O[C@H]2[C@H]1O` [cA4], the Kd was found to be 75.5 ± 34.1 nM on Sso2081 (Crn1) [1]; 43.2 ± 25.5 nM at Sso2081 (Crn1) [2]; 22.8 ± 10.1 nM at Sso2081 (Crn1) [3]; 17.3 ± 9.2 nM at Sso2081 (Crn1) [4]; 17 ± 1.2 nM at Sso2081 (Crn1) [5].

(Values after publication PMC10018336 (Nucleic Acids Research, 2023).)
